Measured values reported in patent publication US11117888B2, “Irreversible inhibitors of pyruvate kinase M2 and the use thereof” (China Medical University, priority 2020, dated 2021).

Tests used:
[1] = system: 246 different kinases (activity) and 143 different kinases (substrate binding); test: Kinase profiling analysis (Life Technologies' SelectScreen Profiling Service); type: biochemical; settings: 500 nM; activity of 246 kinases, substrate binding to 143 kinases
Description: To shed light onto its potential target, compound 1 was submitted to a commercial vendor for kinase profiling analysis (Life Technologies' SelectScreen Profiling Service), in which the inhibitory effects of compound 1 at 500 nM on the activity of 246 different kinases as well as substrate binding to 143 different kinases were tested.

[2] = system: pyruvate kinase activity in PC-9 cells; test: Pyruvate kinase activity assay in PC-9 cells; type: cell-based, human; settings: 0.25 μM, 6 hours, relative to vehicle control
Description: (§1) Pyruvate kinase activity assays. PC-9 cells were seeded into 6 cm dishes at a concentration of 5×10^5 cells/mL. After 24 hours, cells were treated with 0.25 μM compound 1 or DMSO for 6 hours. The pyruvate kinase activity of compound 1-treated PC-9 and vehicle control cells was measured by using a commercial colorimetric assay kit from BioVision (Milpitas, Calif., USA) according to the manufacturer's protocol. In addition, to verify the specificity of compound 1 toward PKM2 versus PKM1, the inhibition of the kinase activity of recombinant PKM1 (SRP0415, Sigma-Aldrich) and recombinant PKM2 (SAE0021, Sigma-Aldrich) by compound 1 was conducted using the aforementioned assay kit.

[3] = target: T1, recombinant PKM1 (Homo sapiens, UniProt P14618); test: Recombinant PKM1 kinase activity assay; type: biochemical; settings: after 20 min of exposure
T1 construct: purchased Sigma-Aldrich SRP0415
Description: (§2) As this cell-based kinase assay could not rule out the involvement of PKM1, we examined the abilities of compound 1 to inhibit the kinase activity of recombinant PKM2 (SAE0021, Sigma-Aldrich) versus recombinant PKM1 (SRP0415, Sigma-Aldrich) using a commercial PKM assay kit. […] In brief, PC-9 cells were exposed to different concentrations of compound 2 in the presence of compound 1 (1 μM) for 1 hour, lysed, and the cell lysates were treated with biotin-azide, followed by streptavidin bead pulldown under the aforementioned conditions. […] The antigen of compound 1 was prepared by coupling this small molecule with cysteine residues of ovalbumin, which was then used for immunization in guinea pigs.
as §1

[4] = system: H1650 lung cancer cells; test: MTT cell viability assay, H1650; type: cell-based; settings: Homo sapiens, NCI-H1650, H1650 (mutant EGFR), 24 hours
From the text: (§3) Cell lines, cell culture, biochemical reagents, and antibodies. MiaPaCa-2, AsPC-1, and Panc-1 human pancreatic cancer cells, MCF-7 and MDA-MB-231 breast cancer cells, SCC4 and SCC2059 oral cancer cells, PC-3 and LNCaP prostate cancer cells, H157, H460, H1975, PC-9 and H1650 lung cancer cells were obtained from the American Type Culture Collection (ATCC, Manassas, Va.). All these cells were maintained in recommended growth medium (RPMI 1640 or DMEM) supplemented with 10% fetal bovine serum (FBS) (Invitrogen, Carlsbad, Calif., USA) and antibiotics at 37° C. in a humidified incubator containing 5% CO2. For SILAC experiments, PC-9 cells were grown in SILAC DMEM medium (Thermo Fisher) supplemented with 10% dialyzed FBS and 100 μg/mL each of unlabeled L-arginine and L-lysine (light medium) or ^13C/^15N stable isotope-labeled L-arginine and L-lysine (heavy medium). […]
(§4) Cell viability assays. Drug effects on cell viability was assessed by 3-(4,5-dimethylthiazol-2-yl)-2,5-diphenyltetrazolium bromide ([…]) assays. […] The medium was then removed from each well and replaced with DMSO to dissolve the reduced MTT dye for subsequent colorimetric measurement of absorbance at 560 nm. Cell viabilities are expressed as percentages of viable cells relative to the corresponding vehicle-treated control group.

[5] = system: H1975 lung cancer cells; test: MTT cell viability assay, H1975; type: cell-based; settings: Homo sapiens, NCI-H1975, H1975 (mutant EGFR), 24 hours
From the text: as §3, §4

[6] = system: H460 lung cancer cells; test: MTT cell viability assay, H460; type: cell-based; settings: Homo sapiens, NCI-H460, H460 (wild type EGFR), 24 hours
From the text: as §3, §4

[7] = target: PKM2 (Homo sapiens, UniProt P14618); test: Gel-based ABPP competition for PKM2 binding in PC-9 cells; design: PC-9 cells were pre-incubated with 1 μM compound 1 for 1 hour, and treated with compound 2; endogenous in cells; host or cells: PC-9 cells; settings: 1 μM compound 1, 1 hour, Western blot
Description: as §2
Gel-based ABPP. PC-9 cells (2×10^6) were seeded in DMEM growth medium in 10-cm plates. After overnight incubation, the growth medium was replaced with fresh medium, followed by the addition of 1 μM compound 1 or DMSO control. After 1 hour, the ABPP probe compound 2 at 0.5, 1 and 2 μM was then added, and incubated at 37° C. for an additional 1 hour. The cell lysates were subjected to copper-catalyzed Click reaction, and biotin-tagged proteins were treated with 50 μL of streptavidin-coupled magnetic beads for 16 hours at 4° C. After incubation, cell lysates were washed by PBS containing 0.5% SDS three times to remove nonspecific binding. […]

[8] = system: PC-3 prostate cancer cells; test: MTT cell viability assay, PC-3; type: cell-based; settings: Homo sapiens; PC-3, MTT, 24 hours
From the text: as §3, §4

[9] = system: ROS production in PC-9 cells; test: ROS assay; type: cell-based, human; settings: 0.25 μM and 0.5 μM, 6 hours
Description: ROS assay. ROS detection was performed by using a fluorescent assay kit from BioVision (Milpitas, Calif., USA) according to the manufacturer's instructions. Briefly, PC-9 cells were seeded into 96-well plate at a cell density of 2×10^4 cells per well. After 24 hours, cells were treated with indicated concentration of compound 1 or DMSO for 6 hours. After treatment, cells were washed in ROS assay buffer and then incubated with 1×ROS label diluted in ROS assay buffer for 45 min at 37° C. in the dark. The ROS label was removed, and the fluorescence at Ex/Em 495/529 nm in end point mode was measured immediately after 100 μl of ROS assay buffer was added to each well.

T1 sequence (P14618 1-531 isoform P14618-2): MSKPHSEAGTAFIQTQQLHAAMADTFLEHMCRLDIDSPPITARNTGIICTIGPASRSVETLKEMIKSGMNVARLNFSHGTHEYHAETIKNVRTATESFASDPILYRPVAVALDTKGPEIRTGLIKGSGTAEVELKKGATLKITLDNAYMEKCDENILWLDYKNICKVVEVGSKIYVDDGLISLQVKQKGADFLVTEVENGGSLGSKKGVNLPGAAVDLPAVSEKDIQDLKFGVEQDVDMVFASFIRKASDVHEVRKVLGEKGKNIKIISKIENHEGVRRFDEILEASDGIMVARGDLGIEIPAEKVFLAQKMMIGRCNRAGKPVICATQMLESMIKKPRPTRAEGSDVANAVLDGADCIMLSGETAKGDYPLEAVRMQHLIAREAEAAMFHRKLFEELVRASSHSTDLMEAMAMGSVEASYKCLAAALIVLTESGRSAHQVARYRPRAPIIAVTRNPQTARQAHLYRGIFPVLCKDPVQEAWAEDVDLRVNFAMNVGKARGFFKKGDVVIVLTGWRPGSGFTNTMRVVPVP
PKM2, sequence (P14618 whole entry): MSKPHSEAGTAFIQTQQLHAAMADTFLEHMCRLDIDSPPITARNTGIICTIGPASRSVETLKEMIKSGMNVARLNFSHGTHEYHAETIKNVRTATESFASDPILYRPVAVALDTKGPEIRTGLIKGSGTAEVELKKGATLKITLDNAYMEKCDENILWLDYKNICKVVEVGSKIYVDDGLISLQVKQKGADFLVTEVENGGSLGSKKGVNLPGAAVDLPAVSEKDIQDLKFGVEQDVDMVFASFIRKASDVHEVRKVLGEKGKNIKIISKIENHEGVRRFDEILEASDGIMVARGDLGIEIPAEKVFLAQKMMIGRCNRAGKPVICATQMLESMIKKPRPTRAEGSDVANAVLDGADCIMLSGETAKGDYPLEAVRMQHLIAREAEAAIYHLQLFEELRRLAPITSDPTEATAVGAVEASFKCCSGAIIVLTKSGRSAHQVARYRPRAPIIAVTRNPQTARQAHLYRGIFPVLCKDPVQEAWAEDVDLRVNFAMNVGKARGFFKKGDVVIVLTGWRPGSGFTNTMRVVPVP

inhibition of kinase activity of recombinant PKM1 [3]: no appreciable inhibition
IC50 [4]: 200 nM
IC50 [5]: 1000 nM
IC50 [6]: 1500 nM
IC50 [8]: 600 nM
SMILES: C#CC(=O)Nc1ccc(-n2nc(CCC(=O)NC)cc2-c2ccc(-c3ccc(C(F)(F)F)cc3)cc2)cc1 [compound 1, N-(4-(3-(3-(Methylamino)-3-oxopropyl)-5-(4′-(trifluoromethyl)-[1,1′-biphenyl]-4-yl)-1H-pyrazol-1-yl)phenyl)propiolamide]
inhibition of kinases in profiling panel [1]: none of the kinases examined was effectively inhibited
pyruvate kinase activity in cells [2]: significantly reduced pyruvate kinase activity
competition with ABPP probe compound 2 for PKM2 binding [7]: binding of the ABPP probe to PKM2 was attenuated
ROS level [9]: reduced the ROS level
